Assay results taken from article PMC5390315 (Scientific Reports, 2017).
“And” between values parts separate entries of the source, which are not always exact repeats. Equal values may be shown once. Read-outs that look alike come from different tables or passages of the source.

Assays:
MCF-7 = assay: Antiproliferative MTT assay, MCF-7; format: cell-based, human; details: mean ± SE
Description: (§1) Human T-cell leukemia (Jurkat) and human B-cell leukemia (SEM and RS4;11) cells were grown in RPMI-1640 medium (Gibco, Milano, Italy). Breast adenocarcinoma (MCF-7), human cervix carcinoma (HeLa), human lung adenocarcinoma (A549) and human colon adenocarcinoma (HT-29) cells were grown in DMEM medium (Gibco, Milano, Italy), all supplemented with 115 units/mL penicillin G (Gibco, Milano, Italy), 115 μg/mL streptomycin (Invitrogen, Milano, Italy), and 10% fetal bovine serum (FBS; Invitrogen, Milano, Italy). Stock solutions (10 mM) of the different compounds were obtained by dissolving them in DMSO. Individual wells of a 96-well tissue culture microtiter plate were inoculated with 100 μL of complete medium containing 8 × 10^3 cells. The plates were incubated at 37 °C in a humidified 5% CO2 incubator for 18 h prior to the experiments. After medium removal, 100 μL of fresh medium containing the test compound at different concentrations was added to each well in triplicate and incubated at 37 °C for 72 h. The percentage of DMSO in the medium never exceeded 0.25%. This was also the maximum DMSO concentration in all cell-based assays described below.

bovine brain tubulin = assay: Inhibition of tubulin polymerization; format: biochemical; details: tubulin at 10 μM; read-out: Tubulin assembly IC50 ± S.D
Description: (§2) To evaluate the effect of the compounds on tubulin assembly in vitro[41], varying concentrations of compounds were preincubated with 10 μM bovine brain tubulin in 0.8 M monosodium glutamate (pH adjusted to 6.6 with HCl in a 2.0 M stock solution) at 30 °C and then cooled to 0 °C. After addition of 0.4 mM GTP, the mixtures were transferred to 0 °C cuvettes in a recording spectrophotometer and warmed to 30 °C. Tubulin assembly was followed turbidimetrically at 350 nm. […] The capacity of the test compounds to inhibit colchicine binding to tubulin was measured as described, except that the reaction mixtures contained 1 μM tubulin, 5 μM [^3H]colchicine and 1 or 5 μM test compound.

RS 4;11 = assay: Antiproliferative MTT assay, RS 4;11; format: cell-based, human; details: mean ± SE
Description: as §1

A549 = assay: Antiproliferative MTT assay, A549; format: cell-based, human; details: mean ± SE
Description: as §1

tubulin = assay: Inhibition of [3H]colchicine binding to tubulin; details: tubulin 1 μM, [3H]colchicine 5 μM
Description: as §2

Jurkat = assay: Antiproliferative MTT assay, Jurkat; format: cell-based, human; details: 72 h, mean ± SE
Description: as §1

SEM cells = assay: Antiproliferative MTT assay, SEM; format: cell-based, human; details: 72 h, mean ± SE
Description: as §1

HeLa = assay: Antiproliferative MTT assay, HeLa; format: cell-based, human; details: 72 h, mean ± SE
Description: as §1

HT-29 = assay: Antiproliferative MTT assay, HT-29; format: cell-based, human; details: mean ± SE
Description: as §1

[1] = tested on: panel of five cancer cell lines; design: method as in PMID 23117171; details: read-out: IC50 range (Figure 1); cited from earlier work
[2] = tested on: panel of seven human tumor cell lines; assay: Antiproliferative activity, range over panel of seven human tumor cell lines; format: cell-based
Description: as §1

[3] = tested on: BL6-B16 murine melanoma cells; assay: Mouse allograft tumor model (BL6-B16 melanoma); format: in vivo
From the text: Animal experiments were approved by our local animal ethics committee (OPBA, Organismo Preposto al Benessere degli Animali, Università degli Studi di Brescia, Italy) and were executed in accordance with national guidelines and regulations. Procedures involving animals and their care conformed with institutional guidelines that comply with national and international laws and policies (EEC Council Directive 86/609, OJ L 358, 12 December 1987) and with “ARRIVE” guidelines (Animals in Research Reporting In Vivo Experiments). Six week old C57BL/6 mice (Charles River, Calco) were injected subcutaneously into the dorsolateral flank with 2.5x10^5 BL6-B16 murine melanoma cells in 200 μL of PBS. When tumors were palpable, animals were treated intraperitoneally every other day with different doses of test compounds dissolved in 50 μL of DMSO. Tumors were measured in two dimensions, and tumor volume was calculated according to the formula V = (D × d^2)/2, where D and d are the major and minor perpendicular tumor diameters, respectively.

[4] = Homo sapiens, read-out: IC50 values, range over the cell line panel

Row | IC50 (MCF-7; Homo sapiens, MCF7, 72 h) | IC50 (bovine brain tubulin) | melting point | IC50 (A549; Homo sapiens, A549, 72 h) | Colchicine binding % inhibition ± S.D, 5 μM drug (tubulin) | IC50 (Jurkat; Homo sapiens, Jurkat) | IC50 (HeLa; Homo sapiens, HeLa) | IC50 (HT-29; Homo sapiens, HT-29, 72 h) | Compound | IC50 (RS 4;11; Homo sapiens, RS4-11, 72 h) | IC50 (SEM cells; Homo sapiens) | also measured
1 |  |  |  |  |  |  |  |  | COc1cc(-c2nc(C)sc2-c2ccc3ccccc3c2)cc(OC)c1OC [Compound 3d] |  |  | IC50 [1]: 33 to 700 nM
2 | 83.8 ± 20.2 nM | 2600 ± 300 nM | 108 to 110 °C | 243 ± 51.5 nM | 54 ± 3% | 43.6 ± 12.3 nM | 24 ± 10.5 nM | 12.3 ± 5.9 nM | COc1ccc(-c2nc(C)oc2-c2cc(OC)c(OC)c(OC)c2)cc1 [Compound 5e, 5-(3,4,5-Trimethoxyphenyl)-4-(4-methoxyphenyl)-2-methyloxazole] | 17.3 ± 4.2 nM | 96.6 ± 22.5 nM | 
3 |  |  |  |  |  |  |  |  | COc1ccc(-c2sc(C)nc2-c2cc(OC)c(OC)c(OC)c2)cc1 [Compound 3b] |  |  | IC50 [1]: 500 to 3400 nM
4 |  |  |  |  |  |  |  |  | 5-(3,4,5-Trimethoxyphenyl)-4-(4-chlorophenyl)-2-methyloxazole [Compound 4c] |  |  | IC50 (MCF-7; 72 h): 2590 ± 447 nM; IC50 (RS 4;11; 72 h): 840 ± 260 nM; IC50 (A549; 72 h): 8780 ± 2310 nM; IC50 (Jurkat): 5580 ± 888 nM; IC50 (SEM cells): 2210 ± 256 nM; IC50 (HeLa): 2820 ± 169 nM; IC50 (HT-29; 72 h): 1400 ± 384 nM
5 | 2.5 ± 0.7 nM | 1200 nM | 127 to 129 °C | 0.65 ± 0.08 nM | 78 ± 0.5% | 4.6 ± 1 nM | 2.4 ± 0.6 nM | 3.3 ± 1.1 nM | COc1ccc(-c2oc(C)nc2-c2cc(OC)c(OC)c(OC)c2)cc1F [Compound 4g, 5-(3-Fluoro-4-methoxyphenyl)-4-(3,4,5-trimethoxyphenyl)-2-methyloxazole] | 0.35 ± 0.15 nM | 3.9 ± 0.8 nM | Colchicine binding % inhibition ± S.D, 1 μM drug (tubulin): 51 ± 1%; IC50 [2, 4]: 0.35 to 4.6 nM
6 |  |  |  |  |  |  |  |  | COc1ccc(/C=C\c2cc(OC)c(OC)c(OC)c2)cc1OP(=O)(O)O [CA-4P, CA-4 disodium phosphate, reference compound] |  |  | reduction in tumor mass [3]: 28.0%
7 | > 10000 nM |  | 132 to 133 °C | > 10000 nM |  | 9000 ± 577 nM | > 10000 nM | > 10000 nM | COc1cc(-c2oc(C)nc2-c2ccc(F)cc2)cc(OC)c1OC [Compound 5b, 4-(4-Fluorophenyl)-5-(3,4,5-trimethoxyphenyl)-2-methyloxazole] | > 10000 nM | > 10000 nM | IC50 ([2]; Homo sapiens, read-out: IC50 values against all cell lines screened): > 9000 nM
8 | 5.2 ± 2.4 nM | 1600 ± 100 nM | 95 to 97 °C | 45.2 ± 12.5 nM | 64 ± 4% | 638 ± 154 nM | 37 ± 14.4 nM | 315 ± 145 nM | COc1cc(-c2oc(C)nc2-c2ccc3ccccc3c2)cc(OC)c1OC [Compound 5a, 5-(3,4,5-Trimethoxyphenyl)-2-methyl-4-(naphthalen-3-yl)oxazole] | 250 ± 89.3 nM |  | 
9 |  |  |  |  |  |  |  |  | COc1cc(-c2nc(C)sc2-c2ccc(C)cc2)cc(OC)c1OC [Compound 3a] |  |  | IC50 [1]: 520 to 1900 nM
10 |  |  |  |  |  |  |  |  | 5-(3,4,5-Trimethoxyphenyl)-4-(3-methoxyphenyl)-2-methyloxazole [Compound 4f] |  |  | IC50 (MCF-7; 72 h): > 10000 nM; IC50 (RS 4;11; 72 h): 5330 ± 167 nM; IC50 (A549; 72 h): > 10000 nM; IC50 (Jurkat): 5230 ± 88.2 nM; IC50 (SEM cells): 3630 ± 171 nM; IC50 (HeLa): > 10000 nM; IC50 (HT-29; 72 h): > 10000 nM
11 |  |  |  |  |  |  |  |  | CCOc1ccc(-c2sc(C)nc2-c2cc(OC)c(OC)c(OC)c2)cc1 [Compound 3c] |  |  | IC50 [1]: 43 to 3300 nM
12 | 1.5 ± 0.6 nM | 1800 ± 100 nM | 124 to 126 °C | 20.3 ± 11.4 nM | 53 ± 3% | 77.7 ± 6.1 nM | 4.2 ± 1.3 nM | 0.9 ± 0.5 nM | CCOc1ccc(-c2oc(C)nc2-c2cc(OC)c(OC)c(OC)c2)cc1Cl [Compound 4j, 5-(3-Chloro-4-ethoxyphenyl)-4-(3,4,5-trimethoxyphenyl)-2-methyloxazole] | 20.2 ± 5.4 nM | 51 ± 13.5 nM | 
13 | 244 ± 74.2 nM | 660 nM | 110 to 112 °C | 92.3 ± 21.5 nM | 86% and 82 ± 3% | 102 ± 22.6 nM | 31 ± 16 nM | 53 ± 24.6 nM | COc1cc(-c2nc(C)oc2-c2ccc(C)cc2)cc(OC)c1OC [Compound 4d, 4-(3,4,5-Trimethoxyphenyl)-2-methyl-5-p-tolyloxazole] | 25.3 ± 3.2 nM | 134 ± 39.5 nM | Colchicine binding % inhibition ± S.D, 1 μM drug (tubulin): 55 ± 3%; IC50 [2, 4]: 25 to 243 nM
14 | 1930 ± 448 nM |  |  | 2760 ± 1200 nM |  | 7200 ± 586 nM | 1980 ± 780 nM | 3700 ± 263 nM | COc1ccc(-c2nc(C)sc2-c2cc(OC)c(OC)c(OC)c2)cc1 [Compound 3e, 2-methyl-4-(4′-methoxyphenyl)-5-(3′,4’,5′-trimethoxyphenyl)thiazole, reference compound] | 2970 ± 738 nM | 1980 ± 780 nM | 
15 | 360 ± 52.6 nM |  | 128 to 129 °C | 2580 ± 289 nM |  | 922 ± 76.6 nM | 148 ± 55.3 nM | 523 ± 61.8 nM | COc1cc(-c2oc(C)nc2-c2ccc(C)cc2)cc(OC)c1OC [Compound 5d, 5-(3,4,5-Trimethoxyphenyl)-2-methyl-4-p-tolyloxazole] | 635 ± 387 nM | 352 ± 77.8 nM | 
16 |  |  |  |  |  |  |  |  | 5-(3,4,5-Trimethoxyphenyl)-4-(4-fluorophenyl)-2-methyloxazole [Compound 4b] |  |  | IC50 (MCF-7; 72 h): > 10000 nM; IC50 (RS 4;11; 72 h): > 10000 nM; IC50 (A549; 72 h): > 10000 nM; IC50 (Jurkat): > 10000 nM; IC50 (SEM cells): 9550 ± 2050 nM; IC50 (HeLa): > 10000 nM; IC50 (HT-29; 72 h): > 10000 nM; IC50 ([2]; read-out: IC50 values against all cell lines screened): > 9000 nM
17 | > 10000 nM |  | 149 to 151 °C | > 10000 nM |  | 5250 ± 0.934 nM | 2560 ± 475 nM | > 10000 nM | COc1cc(-c2oc(C)nc2-c2ccc(Cl)cc2)cc(OC)c1OC [Compound 5c, 4-(4-Chlorophenyl)-5-(3,4,5-trimethoxyphenyl)-2-methyloxazole] | 815 ± 406 nM | 6570 ± 500 nM | 

Row | Compound | IC50 (MCF-7; Homo sapiens, MCF7, 72 h) | IC50 (bovine brain tubulin) | melting point | IC50 (A549; Homo sapiens, A549, 72 h) | Colchicine binding % inhibition ± S.D, 5 μM drug (tubulin) | IC50 (Jurkat; Homo sapiens, Jurkat) | IC50 (HeLa; Homo sapiens, HeLa) | IC50 (HT-29; Homo sapiens, HT-29, 72 h) | IC50 (RS 4;11; Homo sapiens, RS4-11, 72 h) | IC50 (SEM cells; Homo sapiens) | also measured
18 | COc1ccc(-c2oc(C)nc2-c2cc(OC)c(OC)c(OC)c2)cc1 [Compound 4e, 4-(3,4,5-Trimethoxyphenyl)-5-(4-methoxyphenyl)-2-methyloxazole] | 27.7 ± 12 nM | 950 ± 100 nM | 134 to 136 °C | 179 ± 36.3 nM | 78 ± 3% | 18.7 ± 6 nM | 10.8 ± 4.7 nM | 40.8 ± 19.7 nM | 7.6 ± 2.3 nM | 35.6 ± 12.5 nM | Colchicine binding % inhibition ± S.D, 1 μM drug (tubulin): 47 ± 4%
19 | COc1ccc(-c2oc(C)nc2-c2cc(OC)c(OC)c(OC)c2)cc1Cl [Compound 4h, 5-(3-Chloro-4-methoxyphenyl)-4-(3,4,5-trimethoxyphenyl)-2-methyloxazole] | 144 ± 64.3 nM |  | 150 to 152 °C | 138 ± 13.7 nM |  | 512 ± 92.7 nM | 169 ± 75.5 nM | 207 ± 93 nM | 47 ± 13.9 nM | 233 ± 34.6 nM | 
